Reference: patent publication US5643954A, “Method of preventing and alleviating stress in a healthy mammal in need thereof” (priority 1993, dated 1997)
Where two headings read alike, the source gives them in different places.

What was measured:
apomorphine stereotypy = settings: M ± m
phenamine stereotypy = settings: M ± m
arecoline hyperkinesia = settings: M ± m
Corazol convulsions = experiment: testings with Corazolin (Corazol), mice; assay type: in vivo; settings: for Corazol latent period / Corazol life-time: M ± m
[1] = taken once or regularly (14 days)
[2] = after dose, M ± m
Corazol twitch paroxysm = settings: M ± m
[3] = after the exams, after taking, M ± m
[4] = lab conditions, after taking, after testing, M ± m
[5] = intragastric, 20 min before Corazol, in words
[6] = 40 mg/kg week-long introduction

For aminoacetic acid [claimed preparation], the “apomorphine duration of stereotypy” value (apomorphine stereotypy; 2 mg/kg) was 20.0 ± 0.9 min, the apomorphine latent period (apomorphine stereotypy; 2 mg/kg) was 98.0 ± 1.5 s and the “apomorphine duration of stereotypy” value (apomorphine stereotypy; 40 mg/kg) was 22.0 ± 0.6 min. For the same substance, the apomorphine latent period (apomorphine stereotypy; 40 mg/kg) was 104.0 ± 0.9 s, the “apomorphine duration of stereotypy” value (apomorphine stereotypy; 200 mg/kg) was 20.0 ± 0.5 min and the apomorphine latent period (apomorphine stereotypy; 200 mg/kg) was 95.5 ± 0.8 s. The “phenamine duration of stereotypy” value (phenamine stereotypy; 2 mg/kg) was 65.0 ± 2.5 min, the phenamine latent period (phenamine stereotypy; 2 mg/kg) was 110.0 ± 2.6 s and the “phenamine duration of stereotypy” value (phenamine stereotypy; 40 mg/kg) was 62.0 ± 1.6 min. For the same substance, the phenamine latent period (phenamine stereotypy; 40 mg/kg) was 115.0 ± 1.5 s, the “phenamine duration of stereotypy” value (phenamine stereotypy; 200 mg/kg) was 62.0 ± 2.1 min and the phenamine latent period (phenamine stereotypy; 200 mg/kg) was 120.0 ± 2.8 s. For the same substance, the “Arterial pressure, diastolic” value [3] was 65.7 ± 1.5 mm Hg, the “Arterial pressure, systolic” value [3] was 112.8 ± 2.8 mm Hg and the Pulse frequency [3] was 72.8 ± 2.3 spec./min. The “change in pulse rate and arterial pressure” value (heightened nerve-psychic agitation, in words) was “eliminates a change in a pulse rate and arterial pressure”, the “Arterial pressure, diastolic” value (in vivo) was 69.3 ± 1.3 mm Hg and the “Arterial pressure, systolic” value (in vivo) was 110.2 ± 1.7 mm Hg. The Pulse frequency (in vivo) was 76.8 ± 1.4 spec./min, the “Arterial pressure, diastolic” value [4] was 69.2 ± 1.1 mm Hg and the “Arterial pressure, systolic” value [4] was 107.7 ± 1.5 mm Hg. For the same substance, the Pulse frequency [4] was 78.1 ± 1.4 spec./min, the “Arecoline hyperkinesia, duration” value (arecoline hyperkinesia; 2 mg/kg) was 16.5 ± 0.4 min and the “Arecoline hyperkinesia, duration” value (arecoline hyperkinesia; 20 mg/kg) was 14.8 ± 1.2 min. For the same substance, the “Arecoline hyperkinesia, duration” value (arecoline hyperkinesia; 40 mg/kg) was 13.8 ± 0.9 min, the “Arecoline hyperkinesia, duration” value (arecoline hyperkinesia; 80 mg/kg) was 14.5 ± 0.9 min and the “Arecoline hyperkinesia, duration” value (arecoline hyperkinesia; 200 mg/kg) was 15.6 ± 0.8 min. For the same substance, the Corazol tonico-extensor phase (Corazol convulsions; 2 mg/kg intragastric) was 100 min, the Corazol latent period (Corazol convulsions; 2 mg/kg intragastric) was 39.0 ± 0.6 s and the Corazol life-time (Corazol convulsions; 2 mg/kg intragastric) was 2.5 ± 0.7 min. The Corazol tonico-extensor phase (Corazol convulsions; 20 mg/kg intragastric) was 80 min, the Corazol latent period (Corazol convulsions; 20 mg/kg intragastric) was 41.0 ± 0.3 s and the Corazol life-time (Corazol convulsions; 20 mg/kg intragastric) was 2.8 ± 0.8 min. For the same substance, the Corazol tonico-extensor phase (Corazol convulsions; 40 mg/kg intragastric) was 70 min, the Corazol latent period (Corazol convulsions; 40 mg/kg intragastric) was 49.0 ± 0.7 s and the Corazol life-time (Corazol convulsions; 40 mg/kg intragastric) was 2.4 ± 0.7 min. The Corazol tonico-extensor phase (Corazol convulsions; 80 mg/kg intragastric) was 70 min, the Corazol latent period (Corazol convulsions; 80 mg/kg intragastric) was 45.0 ± 0.9 s and the Corazol life-time (Corazol convulsions; 80 mg/kg intragastric) was 3.1 ± 0.9 min. The Corazol tonico-extensor phase (Corazol convulsions; 200 mg/kg intragastric) was 70 min, the Corazol latent period (Corazol convulsions; 200 mg/kg intragastric) was 42.5 ± 0.7 s and the Corazol life-time (Corazol convulsions; 200 mg/kg intragastric) was 2.4 ± 0.5 min. For the same substance, the “latent period of Corazol convulsions” value (Corazol convulsions; [5]) was “increased latent period of Corazol convulsions”, the “tonico-extensor component of a twitch paroxysm” value (Corazol convulsions; [5]) was “some depression of the tonico-extensor component of a twitch paroxysm” and the “weariness, irritation and internal unrest” value [1] was “weariness, irritation and internal unrest significantly abate”. It also gave an AMo/Δx ([2]; after testing) of 94.8 ± 4.1, an Amo ([2]; after testing) of 36.4 ± 2.2% and a Mo ([2]; after testing) of 0.74 ± 0.03 s. It also gave a Δx ([2]; after testing) of 0.38 ± 0.01 s, an AMo/Δx ([2]; prior to tests) of 83.8 ± 4.0 and an Amo ([2]; prior to tests) of 32.0 ± 2.0%. The Mo ([2]; prior to tests) was 0.75 ± 0.03 s, the Δx ([2]; prior to tests) was 0.39 ± 0.01 s and the “Threshold doses Corazol 1% solution, death of animal” value (Corazol twitch paroxysm; 2 mg/kg single administration) was 0.119 ± 0.006 mL. The “Threshold doses Corazol 1% solution, start of twitch” value (Corazol twitch paroxysm; 2 mg/kg single administration) was 0.095 ± 0.004 mL, the “Threshold doses Corazol 1% solution, death of animal” value (Corazol twitch paroxysm; 2 mg/kg week-long introduction) was 0.119 ± 0.004 mL and the “Threshold doses Corazol 1% solution, start of twitch” value (Corazol twitch paroxysm; 2 mg/kg week-long introduction) was 0.090 ± 0.007 mL. For the same substance, the “Threshold doses Corazol 1% solution, death of animal” value (Corazol twitch paroxysm; 40 mg/kg single administration) was 0.130 ± 0.006 mL, the “Threshold doses Corazol 1% solution, start of twitch” value (Corazol twitch paroxysm; 40 mg/kg single administration) was 0.091 ± 0.005 mL and the “Threshold doses Corazol 1% solution, death of animal” value (Corazol twitch paroxysm; [6]) was 0.163 ± 0.005 mL. The “Threshold doses Corazol 1% solution, start of twitch” value (Corazol twitch paroxysm; [6]) was 0.095 ± 0.005 mL and the “Threshold doses Corazol 1% solution, death of animal” value (Corazol twitch paroxysm; 80 mg/kg single administration) was 0.135 ± 0.007 mL.
